The test system of series [1] is Streptococcus pneumoniae. Put plainly: Antibacterial activity against Streptococcus pneumoniae ATCC 49617. The format is functional, organism-based.
Series [2] relates to Streptococcus pneumoniae. Put plainly: Antibacterial activity against Streptococcus pneumoniae ATCC BAA1663. The series is classed as functional, organism-based.
Series [3] has as its system Streptococcus pneumoniae. Kind of series: Antibacterial activity against Streptococcus pneumoniae ATCC 700904. The format is functional, organism-based.
Series [4] in a line: Half life in rat at 2 mg/kg, iv. The format is ADME, organism-based. Particulars: in vivo; call rule not given here.
Series [5] is described as follows: AUC in rat at 2 mg/kg, iv. Particulars: in vivo. The series is classed as ADME, organism-based.
Series [6] is described as follows: Clearance in rat at 2 mg/kg, iv. Particulars: in vivo. The format is ADME, organism-based.
A short description of series [7]: Volume of distribution at steady state in rat at 2 mg/kg, iv. The note with it: in vivo, read-out: Vdss. The format is ADME, organism-based.
A short description of series [8]: Tmax in rat at 10 mg/kg, po. The format is ADME, organism-based. The note with it: in vivo.
Series [9] in a line: Cmax in rat at 10 mg/kg, po. The format is ADME, organism-based. On the set-up: dose 10 mg/kg, route oral. The note with it: in vivo.
A short description of series [10]: Half life in rat at 10 mg/kg, po. The series is classed as ADME, organism-based. Particulars: in vivo.
Series [11] is described as follows: AUC in rat at 10 mg/kg, po. The series is classed as ADME, organism-based. Particulars: in vivo.
The nature of series [12]: Oral bioavailability in rat at 10 mg/kg. The series is classed as ADME, organism-based. Particulars: in vivo.
A short description of series [13]: Solubility of compound at 1 mg/ml incubated for 24 hrs by LC/MS analysis. The series is classed as physicochemical.
Series [14] can be described thus: Protein binding in rat plasma. The series is classed as ADME, cell-free. Particulars: read-out: PPB (converted).
The nature of series [15]: Protein binding in human plasma. The note with it: read-out: PPB (converted). The format is ADME, cell-free.
Setting [16] is: Streptococcus pneumoniae, ATCC 700904, read-out: IC50.

In brackets after ≈: the same amount, converted by molar mass.

The text below walks through data of ChEMBL document CHEMBL4627326, “Discovery of 4-hydroxy-2-oxo-1,2-dihydroquinolines as potential inhibitors of Streptococcus pneumoniae, including drug-resistant strains” (Bioorg Med Chem Lett, 2020).

As to `O=C(Nc1nc2ccccc2[nH]1)c1c(O)c2cccc3c2n(c1=O)CC3`, the concentration for half-maximal inhibition (IC50) (as a rule, the concentration that gives 50% inhibition) turned out to be 2 µM in the series with Streptococcus pneumoniae [1], 2.1 µM with Streptococcus pneumoniae [2] and 3.3 µM with Streptococcus pneumoniae [3] (setting [16]). Besides, the half-life (in general, how long it takes for the measured level to halve) in series [4] was 7.7 h; in [10], 7.2 h. Also, the AUC (commonly concentration integrated over time) in [5] was found to be 25.7 µg·h/mL; in series [11], 21.4 µg·h/mL. In series [6], the clearance (in general, the volume of plasma or blood freed of the substance per unit of time) is 0.07 L/h/kg. Also, in series [7], the Vd was determined as 0.84 L/kg. The Tmax – broadly, the time at which the peak concentration occurs – in series [8] is 2.7 h. The Cmax (as a rule, the peak of the concentration-time curve) in series [9] came out at 2.7 µg/mL. In addition, the bioavailability – broadly, the share of a dose that reaches the circulation, judged against a reference dose that is usually intravenous – in [12] came out at 17%.

With `CCn1c(=O)c(C(=O)Nc2nc3ccc(Cl)cc3s2)c(O)c2ccccc21`, the IC50 in the series with Streptococcus pneumoniae [1] is 5.9 µM; with Streptococcus pneumoniae [2] it was over 20 µM; with Streptococcus pneumoniae [3] (setting [16]), over 20 µM.

As for `CN[C@H](CC(C)C)C(=O)N[C@H]1C(=O)N[C@@H](CC(N)=O)C(=O)N[C@H]2C(=O)N[C@H]3C(=O)N[C@H](C(=O)N[C@H](C(=O)O)c4cc(O)cc(O)c4-c4cc3ccc4O)[C@H](O)c3ccc(c(Cl)c3)Oc3cc2cc(c3O[C@@H]2O[C@H](CO)[C@@H](O)[C@H](O)[C@H]2O[C@H]2C[C@](C)(N)[C@H](O)[C@H](C)O2)Oc2ccc(cc2Cl)[C@H]1O` [VANCOMYCIN], the concentration for half-maximal inhibition (IC50) with Streptococcus pneumoniae [1] lay within 0.15 to 0.18 µM; in the series with Streptococcus pneumoniae [2] it was 0.13 to 0.19 µM; with Streptococcus pneumoniae [3] (setting [16]) it was 0.12 to 0.19 µM.

Consider `C=CCn1c(=O)c(C(=O)Nc2nc3ccccc3[nH]2)c(O)c2ccccc21`, for which the IC50 in the series on Streptococcus pneumoniae [1] was 4.9 µM; in the series on Streptococcus pneumoniae [2], over 20 µM; in the series on Streptococcus pneumoniae [3] (setting [16]), over 20 µM.

Take `O=C(Nc1nc2ccc(Cl)cc2s1)c1c(O)c2cccc3c2n(c1=O)CCC3`: the IC50 with Streptococcus pneumoniae [1], in the series with Streptococcus pneumoniae [2] and in the series with Streptococcus pneumoniae [3] (setting [16]) was over 20 µM in each case.

Consider `Cn1c(=O)c(C(=O)Nc2nccs2)c(O)c2ccccc21`, for which the IC50 in the series on Streptococcus pneumoniae [1], in the series with Streptococcus pneumoniae [2] and in the series with Streptococcus pneumoniae [3] (setting [16]) was over 20 µM throughout.

As for `CCCCn1c(=O)c(C(=O)Nc2nc3ccccc3[nH]2)c(O)c2ccccc21`, the figures for the IC50 with Streptococcus pneumoniae [1], in the series with Streptococcus pneumoniae [2] and with Streptococcus pneumoniae [3] (setting [16]) were 0.92 µM, 1.8 µM and 0.8 µM, respectively. Further, the half-life is 18.8 h in series [4] and 4 h in series [10]. The AUC in series [5] is 6.99 µg·h/mL; in series [11] it was 12.4 µg·h/mL. Further, the clearance in series [6] was 0.18 L/h/kg. In addition, the Vd in [7] amounted to 4.76 L/kg. Besides, in series [8], the Tmax was found to be 6 h. In series [9], this compound showed a maximum concentration (Cmax) of 1.2 µg/mL. Moreover, the bioavailability in series [12] worked out at 35%.

As for `O=C(Nc1nc2ccccc2[nH]1)c1c(O)c2cccc3c2n(c1=O)CCC3`, the values for the IC50 in the series with Streptococcus pneumoniae [1], in the series with Streptococcus pneumoniae [2] and in the series with Streptococcus pneumoniae [3] (setting [16]) were 6.5 µM, 5.2 µM and 6.4 µM, respectively.

Consider `C=CCn1c(=O)c(C(=O)Nc2nc3ccc(Cl)cc3s2)c(O)c2ccccc21`, for which the IC50 was over 20 µM in the series on Streptococcus pneumoniae [1], 3.1 µM in the series with Streptococcus pneumoniae [2] and 3.1 µM in the series with Streptococcus pneumoniae [3] (setting [16]).

On to `Cc1nnc(NC(=O)c2c(O)c3cccc4c3n(c2=O)CC4)s1`, for which the IC50 is 2.2 µM with Streptococcus pneumoniae [1], 2.7 µM in the series with Streptococcus pneumoniae [2] and 1.7 µM in the series with Streptococcus pneumoniae [3] (setting [16]).

`C=CCn1c(=O)c(C(=O)Nc2nccs2)c(O)c2ccccc21`: the IC50 was 4.1 µM in the series with Streptococcus pneumoniae [1], 4.5 µM with Streptococcus pneumoniae [2] and 4.2 µM in the series with Streptococcus pneumoniae [3] (setting [16]).

For the compound `CCCCn1c(=O)c(C(=O)Nc2nccs2)c(O)c2ccccc21`, the IC50 in the series with Streptococcus pneumoniae [1] was found to be 0.57 µM; in the series with Streptococcus pneumoniae [2] it was 0.75 µM; with Streptococcus pneumoniae [3] (setting [16]), 0.77 µM.

For the compound `O=C(Nc1nc2ccccc2s1)c1c(O)c2cccc3c2n(c1=O)CC3`, the IC50 in the series with Streptococcus pneumoniae [1] turned out to be 3.6 µM; with Streptococcus pneumoniae [2], 8.8 µM; with Streptococcus pneumoniae [3] (setting [16]), 7.9 µM.

For `CC[C@H]1OC(=O)[C@H](C)[C@@H](O[C@H]2C[C@@](C)(OC)[C@@H](O)[C@H](C)O2)[C@H](C)[C@@H](O[C@@H]2O[C@H](C)C[C@H](N(C)C)[C@H]2O)[C@](C)(O)C[C@@H](C)C(=O)[C@H](C)[C@@H](O)[C@]1(C)O` [ERYTHROMYCIN], the IC50 is 0.051 to 0.1 µM in the series on Streptococcus pneumoniae [1], 0.037 to 0.08 µM in the series on Streptococcus pneumoniae [2] and “Not Active” with Streptococcus pneumoniae [3].

`O=C(Nc1nccs1)c1c(O)c2cccc3c2n(c1=O)CC3`: the IC50 is 17.6 µM in the series on Streptococcus pneumoniae [1], 16 µM with Streptococcus pneumoniae [2] and over 20 µM in the series with Streptococcus pneumoniae [3] (setting [16]).

Consider `CCn1c(=O)c(C(=O)Nc2nccs2)c(O)c2ccccc21`, for which the values for the IC50 in the series with Streptococcus pneumoniae [1], in the series with Streptococcus pneumoniae [2] and with Streptococcus pneumoniae [3] (setting [16]) were over 20 µM, 6.6 µM and 6.2 µM, respectively.

`CCn1c(=O)c(C(=O)Nc2nc3ccccc3[nH]2)c(O)c2ccccc21`: the figures for the IC50 with Streptococcus pneumoniae [1], in the series with Streptococcus pneumoniae [2] and in the series with Streptococcus pneumoniae [3] (setting [16]) were 6.4 µM, 5.4 µM and 3.8 µM, respectively.

As for `CCCCn1c(=O)c(C(=O)Nc2nc3ccc(Cl)cc3s2)c(O)c2ccccc21`, the IC50 in the series on Streptococcus pneumoniae [1] was found to be 1 µM; in the series with Streptococcus pneumoniae [2], 0.66 µM; in the series on Streptococcus pneumoniae [3] (setting [16]), 0.38 µM.

On to `Cn1c(=O)c(C(=O)Nc2nc3ccccc3[nH]2)c(O)c2ccccc21`, for which the IC50 in the series on Streptococcus pneumoniae [1], in the series with Streptococcus pneumoniae [2] and in the series on Streptococcus pneumoniae [3] (setting [16]) was over 20 µM each time.

On to `O=C(Nc1nc2ccc(Cl)cc2s1)c1c(O)c2cccc3c2n(c1=O)CC3`, for which the 50% inhibitory concentration (IC50) in the series with Streptococcus pneumoniae [1] turned out to be 0.27 µM; with Streptococcus pneumoniae [2], 1.03 µM; in the series with Streptococcus pneumoniae [3] (setting [16]), 0.62 µM. Moreover, the solubility (in general, how much of the substance goes into solution per volume) at 24 h in series [13] came to 0.195 µg/mL (≈ 0.49 µM). The fraction unbound in series [14] was 0.016; in series [15], 0.006.

For the compound `O=C(Nc1nccs1)c1c(O)c2cccc3c2n(c1=O)CCC3`, the IC50 in the series on Streptococcus pneumoniae [1], with Streptococcus pneumoniae [2] and in the series with Streptococcus pneumoniae [3] (setting [16]) was over 20 µM in each case.

Turning to `O=C(Nc1nc2ccc(Cl)cc2s1)c1c(O)c2ccccc2[nH]c1=O`, the values for the IC50 in the series on Streptococcus pneumoniae [1], in the series on Streptococcus pneumoniae [2] and with Streptococcus pneumoniae [3] (setting [16]) were 13.1 µM, over 20 µM and over 20 µM, respectively.
